Laboratory results published in ChEMBL document CHEMBL1201862, “PubChem BioAssay data set” (2004).
Calls of active or inactive are those of the source.

Assays:
[1] = microbe, parasite or virus in culture; assay type: functional; details: Mycobacterium tuberculosis
[2] = Luminescence-based cell-based high throughput dose response assay to identify activators of the DAF-12 from the parasite S. stercoralis (ssDAF-12).; assay type: functional
[3] = target: T1, Oxysterols receptor LXR-beta (Homo sapiens, UniProt P55055); assay type: functional, cell-based;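 also: Cell-based luminescence dose-response assay of agonist activity at LXR, run as a confirmatory counterscreen to a daf-12 agonist screen; HEK293 cells with Gal4-LXR fusion and GAL4-driven luciferase reporter; agonist potency from rising luciferase signal of a Gal4-LXR reporter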
T1 sequence (P55055 whole entry): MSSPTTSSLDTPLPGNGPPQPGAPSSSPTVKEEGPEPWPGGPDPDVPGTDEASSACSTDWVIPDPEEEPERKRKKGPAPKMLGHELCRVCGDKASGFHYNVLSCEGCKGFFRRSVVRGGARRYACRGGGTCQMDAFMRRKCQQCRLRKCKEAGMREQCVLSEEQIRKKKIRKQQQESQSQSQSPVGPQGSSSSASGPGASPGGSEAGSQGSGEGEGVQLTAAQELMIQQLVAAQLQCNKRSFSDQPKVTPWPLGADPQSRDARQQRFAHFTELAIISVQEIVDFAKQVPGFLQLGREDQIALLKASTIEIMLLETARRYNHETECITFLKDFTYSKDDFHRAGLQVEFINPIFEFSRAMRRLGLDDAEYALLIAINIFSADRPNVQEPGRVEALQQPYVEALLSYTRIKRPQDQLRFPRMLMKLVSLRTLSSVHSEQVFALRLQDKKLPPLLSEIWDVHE

cells [4] = assay: cells
[5] = Luminescence Cell-Based Dose Response HTS to Identify Inhibitors of 5'UTR Stem-Loop Driven Prion Protein mRNA Translation in H4 Neuroglioblastoma Cells. [Related pubchem assays: 1827 (Project Summary), 1813 (Primary HTS)]; assay type: functional
[6] = alpha-synuclein stem-loop luciferase translation blockers – H4 neuroglioma cells, luminescence, confirmation (AID 1988); assay type: functional, cell-based
[7] = Trypanosoma cruzi growth suppression in host cells – NIH3T3 host cells, beta-gal luminescence, confirmation (AID 2044); assay type: functional, cell-based;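 also: intracellular parasites grown in NIH/3T3 mouse fibroblasts as host cells; luminescent beta-galactosidase reporter signal from transgenic T. cruzi replicating inside host cells; inhibitors lower the luminescence signal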
[8] = NIH3T3 cell viability loss – ATP luminescence, mouse fibroblasts, counter-screen, dose response (AID 2010); assay type: functional, cell-based;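 also: cells exposed to compound for about 90 hours before reading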
[9] = target: T2, Rac GTPase-activating protein 1 (Homo sapiens, UniProt Q9H0H5); assay: blockers of MgcRacGAP-driven Rac1 GTP hydrolysis – biochemical, ADP Hunter fluorescence, primary and confirmatory, confirmation (AID 624330); assay type: functional
T2 sequence (Q9H0H5 whole entry): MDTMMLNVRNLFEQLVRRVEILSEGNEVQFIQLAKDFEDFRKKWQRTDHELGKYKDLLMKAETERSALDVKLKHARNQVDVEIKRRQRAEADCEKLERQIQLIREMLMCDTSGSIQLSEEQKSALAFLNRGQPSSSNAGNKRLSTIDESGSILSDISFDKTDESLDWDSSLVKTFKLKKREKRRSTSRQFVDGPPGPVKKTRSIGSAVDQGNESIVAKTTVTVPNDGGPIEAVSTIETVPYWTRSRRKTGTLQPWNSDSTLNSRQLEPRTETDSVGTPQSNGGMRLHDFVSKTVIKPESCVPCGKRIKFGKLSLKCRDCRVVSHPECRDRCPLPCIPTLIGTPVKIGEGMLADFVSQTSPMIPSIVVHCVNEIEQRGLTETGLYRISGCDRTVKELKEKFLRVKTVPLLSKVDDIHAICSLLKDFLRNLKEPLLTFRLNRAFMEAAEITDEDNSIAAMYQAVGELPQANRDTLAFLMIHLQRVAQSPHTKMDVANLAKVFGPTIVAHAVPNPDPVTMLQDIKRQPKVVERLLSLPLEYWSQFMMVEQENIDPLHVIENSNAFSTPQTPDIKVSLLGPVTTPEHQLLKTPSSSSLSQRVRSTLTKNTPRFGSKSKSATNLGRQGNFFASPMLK

cells [10] = assay: cells; remark: listed apart in the source
[11] = growth inhibition of yeast DHODH-expressing 3D7 parasites – SYBR Green, dry powder samples, dose response (AID 1159570); assay type: functional, cell-based;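 also: parasite growth measured after 72 hours of compound exposure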
[12] = toxicity to human HepG2 hepatoma cells – cell-based, plate reader, dry powder samples, cytotoxicity control, dose response (AID 1159569); assay type: functional;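 also: inhibitor potency with signal falling toward the positive control level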
[13] = P. falciparum Dd2 growth inhibitors, dose response, SYBR Green, cherry-picked samples (AID 1159567); assay type: functional, cell-based
[14] = Dd2 malaria parasite growth inhibition potency – SYBR Green, dry powder samples, dose response (AID 1159566); assay type: functional, cell-based;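 also: potency for growth inhibition with lower SYBR green DNA signal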
[15] = toxicity to human hepatoma HepG2 cells – cell-based, cherry-picked samples, cytotoxicity control, dose response (AID 1159577); assay type: functional
[16] = growth inhibition of PfATP4-mutant resistant parasites – NITD609-resistant line, SYBR Green, dry powder, dose response (AID 1159571); assay type: functional, cell-based;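 also: parasites synchronized at ring stage by sorbitol before testing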
Mucolipin-3 = target: T3, Mucolipin-3 (Homo sapiens, UniProt Q8TDD5); assay: Dose response cell-based high-throughput screening assay for agonists of the transient receptor potential channel ML3 (TRPML3). [Related pubchem assays: 1526, 1424, 1448 ]; assay type: functional
T3 sequence (Q8TDD5 whole entry): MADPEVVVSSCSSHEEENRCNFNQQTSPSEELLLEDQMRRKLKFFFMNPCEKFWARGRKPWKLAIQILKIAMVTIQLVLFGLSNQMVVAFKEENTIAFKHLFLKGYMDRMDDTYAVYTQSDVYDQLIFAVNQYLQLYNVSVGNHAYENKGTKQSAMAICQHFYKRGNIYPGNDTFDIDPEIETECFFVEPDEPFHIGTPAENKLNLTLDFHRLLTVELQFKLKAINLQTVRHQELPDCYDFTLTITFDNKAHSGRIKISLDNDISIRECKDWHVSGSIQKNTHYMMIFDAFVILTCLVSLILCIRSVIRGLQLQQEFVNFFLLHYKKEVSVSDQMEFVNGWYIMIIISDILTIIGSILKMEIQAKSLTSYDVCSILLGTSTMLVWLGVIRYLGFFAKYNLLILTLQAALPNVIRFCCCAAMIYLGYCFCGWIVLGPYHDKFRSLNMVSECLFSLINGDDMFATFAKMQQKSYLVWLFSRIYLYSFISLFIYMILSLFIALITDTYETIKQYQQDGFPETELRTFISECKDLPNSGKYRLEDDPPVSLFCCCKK

Ion channel NompC = Ion channel NompC (Danio rerio, UniProt Q7T1G6); assay: Fluorescence counterscreen assay for TRPML3 agonists: dose response cell-based high-throughput screening assay to identify agonists of the transient receptor potential channel N1 (TRPN1). [Related pubchem assays: 1526, 1424, 1448 ]; assay type: functional
[17] = reduced cellular PGC1a acetyl-lysine signal – cell-based, cherry-picked samples, dose response (AID 720514); assay type: functional;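 also: potency may reflect raised or lowered acetylation signal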
[18] = NIH-3T3 fibroblast cytotoxicity, dose response, cytotoxicity control, cell-based, fluorescence, Alamar Blue, secondary assay (AID 2327); assay type: functional;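 also: NIH-3T3 mouse fibroblasts cultured with fluconazole at 8 µg/mL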
[19] = fluconazole-exposed Candida albicans growth modulators – fluorescence, retest, confirmation (AID 2467); assay type: functional, cell-based
Large T antigen = Large T antigen (Simian virus 40, UniProt P03070); assay type: functional, Betapolyomavirus macacae;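 also: Confirmatory-stage PubChem screen for compounds that inhibit SV40 T antigen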
[20] = target: T4, Short transient receptor potential channel 4 (Mus musculus, UniProt Q9QUQ5); assay: block of DAMGO-driven TRPC4 calcium entry – cell-based, HEK293 TRPC4/mu-opioid, Fluo-4 calcium, dose response (AID 434942); assay type: functional;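 also: potency of inhibitors blocking the TRPC4 calcium response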
T4 sequence (Q9QUQ5 whole entry): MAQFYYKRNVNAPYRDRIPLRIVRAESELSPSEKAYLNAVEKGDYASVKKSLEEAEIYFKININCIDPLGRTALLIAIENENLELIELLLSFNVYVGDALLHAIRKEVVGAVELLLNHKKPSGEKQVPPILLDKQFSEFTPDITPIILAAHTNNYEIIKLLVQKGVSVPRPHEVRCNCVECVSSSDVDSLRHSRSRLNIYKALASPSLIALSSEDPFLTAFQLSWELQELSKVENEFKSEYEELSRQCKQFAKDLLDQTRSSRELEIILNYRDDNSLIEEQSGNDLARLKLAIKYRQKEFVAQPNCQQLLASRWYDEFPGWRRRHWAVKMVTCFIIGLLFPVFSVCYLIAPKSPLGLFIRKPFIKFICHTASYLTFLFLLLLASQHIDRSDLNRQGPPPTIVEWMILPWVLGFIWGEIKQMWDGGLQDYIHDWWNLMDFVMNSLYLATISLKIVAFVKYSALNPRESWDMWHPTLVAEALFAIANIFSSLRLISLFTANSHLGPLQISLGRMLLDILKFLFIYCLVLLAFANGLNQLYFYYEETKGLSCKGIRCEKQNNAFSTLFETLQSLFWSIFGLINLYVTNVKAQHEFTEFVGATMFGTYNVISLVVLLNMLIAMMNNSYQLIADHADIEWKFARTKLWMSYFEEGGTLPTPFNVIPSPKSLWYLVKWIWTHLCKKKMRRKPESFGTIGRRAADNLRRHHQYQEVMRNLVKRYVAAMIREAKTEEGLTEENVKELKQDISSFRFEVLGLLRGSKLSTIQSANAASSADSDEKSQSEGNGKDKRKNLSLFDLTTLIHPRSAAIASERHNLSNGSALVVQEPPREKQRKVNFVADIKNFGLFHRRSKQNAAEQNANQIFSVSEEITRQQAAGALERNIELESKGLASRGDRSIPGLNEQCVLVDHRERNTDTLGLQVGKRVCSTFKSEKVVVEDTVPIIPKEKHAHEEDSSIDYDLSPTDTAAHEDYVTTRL

Estrogen receptor beta = Estrogen receptor beta (Homo sapiens, UniProt Q92731); assay: blockers of SRC-3 recruitment to ERβ – biochemical, ELISA, streptavidin-HRP readout, orthogonal assay, confirmation (AID 1060)
[21] = target: Mitogen-activated protein kinase 10 (Homo sapiens, UniProt P53779); assay: Dose response biochemical screening assay for inhibitors of c-Jun N-Terminal Kinase 3 (JNK3). [Related pubchem assays: 746 ]
Protein Tat = target: T5, Protein Tat (Human immunodeficiency virus type 1 group M subtype B (isolate HXB2)(HIV-1), UniProt P04608); assay type: functional;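 also: tat binding to TAR RNA read out by fluorescence polarization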
T5 sequence (P04608 whole entry): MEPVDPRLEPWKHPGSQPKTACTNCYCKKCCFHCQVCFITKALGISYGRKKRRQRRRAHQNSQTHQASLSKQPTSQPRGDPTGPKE

Sequence of Ion channel NompC (Q7T1G6 whole entry): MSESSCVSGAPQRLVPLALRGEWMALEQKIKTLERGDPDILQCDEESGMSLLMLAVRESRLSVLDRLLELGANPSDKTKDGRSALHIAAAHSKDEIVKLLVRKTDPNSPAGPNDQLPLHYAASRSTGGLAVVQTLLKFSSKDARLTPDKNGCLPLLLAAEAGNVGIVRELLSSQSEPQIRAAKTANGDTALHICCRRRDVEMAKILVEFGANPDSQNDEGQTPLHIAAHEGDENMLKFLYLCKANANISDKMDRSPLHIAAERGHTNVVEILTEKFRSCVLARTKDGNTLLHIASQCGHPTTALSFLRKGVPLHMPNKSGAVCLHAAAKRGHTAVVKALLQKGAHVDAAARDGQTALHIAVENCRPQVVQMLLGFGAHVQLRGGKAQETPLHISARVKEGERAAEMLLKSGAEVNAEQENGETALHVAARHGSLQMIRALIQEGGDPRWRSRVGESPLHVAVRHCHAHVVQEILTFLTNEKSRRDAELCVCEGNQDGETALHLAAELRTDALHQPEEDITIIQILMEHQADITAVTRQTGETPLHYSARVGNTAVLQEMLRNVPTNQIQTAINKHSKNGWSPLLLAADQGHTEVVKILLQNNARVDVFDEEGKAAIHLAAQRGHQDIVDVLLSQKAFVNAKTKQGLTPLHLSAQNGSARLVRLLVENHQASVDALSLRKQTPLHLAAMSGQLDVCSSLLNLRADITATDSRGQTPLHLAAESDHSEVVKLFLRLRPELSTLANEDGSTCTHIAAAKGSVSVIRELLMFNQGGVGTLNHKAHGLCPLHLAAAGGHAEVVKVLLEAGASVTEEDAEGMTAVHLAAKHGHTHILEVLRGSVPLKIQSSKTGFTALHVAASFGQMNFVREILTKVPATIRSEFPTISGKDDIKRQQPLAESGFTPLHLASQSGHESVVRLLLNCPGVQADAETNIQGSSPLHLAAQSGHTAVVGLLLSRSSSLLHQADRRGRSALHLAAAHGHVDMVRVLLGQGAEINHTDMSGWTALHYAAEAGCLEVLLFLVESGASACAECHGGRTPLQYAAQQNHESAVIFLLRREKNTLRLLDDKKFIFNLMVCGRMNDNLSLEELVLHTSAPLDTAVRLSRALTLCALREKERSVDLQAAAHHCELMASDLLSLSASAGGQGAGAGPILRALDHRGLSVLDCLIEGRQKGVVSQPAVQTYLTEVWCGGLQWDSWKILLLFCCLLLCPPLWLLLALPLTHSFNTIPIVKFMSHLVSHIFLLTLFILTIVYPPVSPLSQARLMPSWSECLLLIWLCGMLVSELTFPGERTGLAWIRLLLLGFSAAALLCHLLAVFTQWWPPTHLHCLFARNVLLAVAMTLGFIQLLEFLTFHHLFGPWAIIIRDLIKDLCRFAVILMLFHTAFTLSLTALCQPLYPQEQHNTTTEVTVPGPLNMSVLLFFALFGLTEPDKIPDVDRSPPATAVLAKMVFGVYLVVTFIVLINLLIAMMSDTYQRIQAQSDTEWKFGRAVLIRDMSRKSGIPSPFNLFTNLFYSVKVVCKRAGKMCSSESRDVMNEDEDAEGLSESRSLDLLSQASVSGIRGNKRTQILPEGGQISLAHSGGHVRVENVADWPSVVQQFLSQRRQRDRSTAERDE
Sequence of Large T antigen (P03070 whole entry): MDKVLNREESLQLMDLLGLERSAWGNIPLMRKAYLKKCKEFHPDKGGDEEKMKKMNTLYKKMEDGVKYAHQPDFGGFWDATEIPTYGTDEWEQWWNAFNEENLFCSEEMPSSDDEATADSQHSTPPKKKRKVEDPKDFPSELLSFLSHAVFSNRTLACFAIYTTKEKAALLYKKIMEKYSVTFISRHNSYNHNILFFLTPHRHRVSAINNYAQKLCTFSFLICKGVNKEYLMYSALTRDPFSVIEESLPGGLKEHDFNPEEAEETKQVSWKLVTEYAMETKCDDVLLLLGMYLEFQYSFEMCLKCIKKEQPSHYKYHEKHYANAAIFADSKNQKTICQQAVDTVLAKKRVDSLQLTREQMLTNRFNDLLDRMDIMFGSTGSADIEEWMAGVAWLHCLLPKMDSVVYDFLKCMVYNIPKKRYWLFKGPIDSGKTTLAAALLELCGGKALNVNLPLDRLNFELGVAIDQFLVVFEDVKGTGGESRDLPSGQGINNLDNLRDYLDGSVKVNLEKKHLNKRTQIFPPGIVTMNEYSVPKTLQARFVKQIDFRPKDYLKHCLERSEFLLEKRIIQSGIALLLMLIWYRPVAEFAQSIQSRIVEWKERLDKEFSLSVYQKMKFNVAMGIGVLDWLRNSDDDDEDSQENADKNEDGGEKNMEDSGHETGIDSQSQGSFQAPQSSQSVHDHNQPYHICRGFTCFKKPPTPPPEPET
Sequence of Estrogen receptor beta (Q92731 whole entry): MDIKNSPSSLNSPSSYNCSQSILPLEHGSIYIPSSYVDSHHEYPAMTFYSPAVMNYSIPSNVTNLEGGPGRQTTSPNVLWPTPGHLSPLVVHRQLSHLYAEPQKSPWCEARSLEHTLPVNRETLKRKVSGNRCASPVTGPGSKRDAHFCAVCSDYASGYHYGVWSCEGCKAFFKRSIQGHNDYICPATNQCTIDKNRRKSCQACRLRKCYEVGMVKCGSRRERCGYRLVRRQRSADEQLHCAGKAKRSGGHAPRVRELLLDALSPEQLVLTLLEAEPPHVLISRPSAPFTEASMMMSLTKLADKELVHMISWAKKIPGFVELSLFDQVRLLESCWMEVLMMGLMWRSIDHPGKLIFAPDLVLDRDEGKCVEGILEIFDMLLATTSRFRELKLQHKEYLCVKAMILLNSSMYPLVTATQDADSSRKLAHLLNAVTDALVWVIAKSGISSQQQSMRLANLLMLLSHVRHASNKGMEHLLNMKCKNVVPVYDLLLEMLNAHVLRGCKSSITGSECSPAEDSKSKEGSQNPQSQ
Sequence of Mitogen-activated protein kinase 10 (P53779 whole entry): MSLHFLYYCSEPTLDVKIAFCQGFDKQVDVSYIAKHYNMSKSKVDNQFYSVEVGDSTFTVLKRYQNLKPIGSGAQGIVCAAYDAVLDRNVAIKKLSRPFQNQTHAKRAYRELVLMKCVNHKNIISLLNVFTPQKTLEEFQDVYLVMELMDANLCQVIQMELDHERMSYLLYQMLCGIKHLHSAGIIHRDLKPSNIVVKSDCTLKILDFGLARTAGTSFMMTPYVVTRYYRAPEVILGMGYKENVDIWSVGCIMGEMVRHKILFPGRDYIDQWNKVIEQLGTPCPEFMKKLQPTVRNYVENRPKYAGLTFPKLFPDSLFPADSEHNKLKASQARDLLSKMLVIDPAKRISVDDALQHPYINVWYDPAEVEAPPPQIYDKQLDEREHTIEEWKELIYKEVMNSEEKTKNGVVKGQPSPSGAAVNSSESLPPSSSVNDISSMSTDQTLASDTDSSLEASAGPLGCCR

SMILES: CCc1ccc(-n2nc3cc(C)c(N)cc3n2)cc1
- CC50 [1]: > 40 µM (active)
- IC50 [2]: > 67.5 µM (inactive)
- EC50 [3]: > 67.5 µM (inactive)
- EC50 (cells [4]): > 67.5 µM (inactive)

SMILES: Cc1ccc2c(c1)s/c(=N/C(=O)c1cccs1)n2C
- EC50 [5]: 4.15 µM (active)
- EC50 [6]: 4.79 µM (active)
- EC50 [3]: > 67.6 µM (inactive)
- EC50 (cells [4]): > 67.6 µM (inactive)

SMILES: Cc1cc(Cl)c(OCCOCCN2CCN(C)CC2)c(Br)c1
- EC50 [7]: < 0.1 µM (active)
- EC50 [8]: > 60 µM (not active)
- IC50 [9]: 63.9 µM (active)
- EC50 (cells [10]): 0.294 µM (active)

SMILES: COc1ccccc1S(=O)(=O)N(C)C[C@@H]1Oc2cc(C#CCC3CCCC3)ccc2S(=O)(=O)N([C@H](C)CO)C[C@H]1C
- AC50 [11]: 0.227 µM (active)
- AC50 [12]: 23.8 µM (active)
- AC50 [13]: 0.309 µM (active)
- AC50 [14]: 0.146 µM (active)
- AC50 [15]: 28.6 µM (active)
- AC50 [16]: 0.104 µM (active)

SMILES: O=S(=O)(c1ccccc1)C1(S(=O)(=O)c2ccccc2)CCCC1
- EC50 (Mucolipin-3): 5.62 µM (active)
- EC50 (Ion channel NompC): > 29.9 µM (not active)

SMILES: CC1(c2ccccc2)CC(C)(C)N(C(=O)c2cc([N+](=O)[O-])cc([N+](=O)[O-])c2)c2ccccc21 (configuration not stated)
- EC50 [7]: < 0.1 µM (active)
- EC50 [8]: 5.58 µM (active)
- EC50 (cells [10]): 0.214 µM (active)

SMILES: C[C@@H]1CN([C@@H](C)CO)C(=O)c2c(c3ccccc3n2C)-c2ccccc2CO[C@H]1CN(C)S(=O)(=O)c1ccsc1
- AC50 [17]: 29.2 µM (active)

SMILES: CCCC[n+]1c2ccccc2cc2ccccc21
- EC50 [18]: > 150 µM (inactive)
- EC50 [19]: 0.604 µM (active)
- IC50 (Large T antigen): 42.4 µM (active)
- EC50 [7]: < 0.1 µM (active)
- EC50 [8]: > 60 µM (not active)
- EC50 [20]: 4.22 µM (active)
- EC50 (cells [10]): 0.041 µM (active)

SMILES: CN1CCN(CC(=O)Nc2sc3c(c2C#N)CCCC3)CC1
- IC50 (Estrogen receptor beta): 15 µM (not active)

SMILES: COc1cccc2c(O)c(C/C=C(/C)Cl)c(C)nc12
- IC50 [21]: 75 µM (not active)

SMILES: C[C@@H]1CN([C@@H](C)CO)S(=O)(=O)c2ccc(/C=C/c3ccccc3)cc2O[C@H]1CN(C)C(=O)c1ccc2c(c1)OCO2
- AC50 [11]: 2.96 µM (active)
- AC50 [12]: 87.3 µM (active)
- AC50 [13]: 2.43 µM (active)
- AC50 [14]: 2.09 µM (active)
- AC50 [16]: 1.18 µM (active)

SMILES: COc1ccc(N(C)S(=O)(=O)c2ccc(C)cc2)c([N+](=O)[O-])c1
- EC50 (Mucolipin-3): 3.13 µM (active)
- EC50 (Ion channel NompC): > 29.9 µM (not active)

SMILES: Cc1cc(C(C)c2ccccc2)c(O)c(CN2CCOCC2)c1C (configuration not stated)
- EC50 (Mucolipin-3): 5.07 µM (active)
- EC50 (Ion channel NompC): > 29.9 µM (not active)
- IC50 (Protein Tat): > 100 µM (active)

SMILES: COC(=O)c1nn(-c2ccccc2)ccc1=O
- AC50 [17]: 5.56 µM (active)

SMILES: COc1ccc2c3c(n(C)c2c1)[C@H](CO)NCC31CCN(CC2CCCC2)CC1
- AC50 [11]: 0.449 µM (active)
- AC50 [12]: 46.3 µM (active)
- AC50 [13]: 0.738 µM (active)
- AC50 [14]: 0.481 µM (active)
- AC50 [15]: 35.5 µM (active)
- AC50 [16]: 0.425 µM (active)

SMILES: Cc1ccc(-c2nnc(-c3cccc4ccccc34)o2)cc1
- EC50 [3]: > 67.5 µM (inactive)
- EC50 (cells [4]): > 67.5 µM (inactive)
